From publication PMC9407119, “Improving the Specific Activity and Thermostability of Psychrophilic Xylosidase AX543 by Comparative Mutagenesis” (Foods, 2022) come the findings set out here.

The structures appear in SMILES notation.

For orientation: Km means the substrate concentration at which the rate is half of its maximum.

Common to all, as to assay: pNP release at […] nm, Lineweaver-Burk
Common to all, as to settings: McIlvaine buffer, pH 6.0, 20 °C, 5 min, pNPX 0.1 to 2 mM

The test system of experiment [1] is T1, R9.
T1 construct: gene Xyl43A; Xyl43A with segment A2 (T68-G160) of AX543; pET-28a(+), E. coli BL21(DE3), purified
In kind it is biochemical, Humicola insolens; Acremonium sp. WCQ6A.

For experiment [2], the system named is T2, R5.
T2 construct: gene AX543; pET-28a(+), E. coli BL21(DE3), purified
In kind it is biochemical, Acremonium sp. WCQ6A; Humicola insolens.

Experiment [3] deals with T3, R7.
T3 construct: gene Xyl43A; Xyl43A with segment A4 (H232-D324) of AX543 at the C-terminus; pET-28a(+), E. coli BL21(DE3), purified
In kind it is biochemical, Humicola insolens; Acremonium sp. WCQ6A.

The test system of experiment [4] is T4, R6.
T4 construct: gene AX543; pET-28a(+), E. coli BL21(DE3), purified
In kind it is biochemical, Humicola insolens; Acremonium sp. WCQ6A.

The subject of experiment [5] is T5, R2.
T5 construct: gene AX543; pET-28a(+), E. coli BL21(DE3), purified
In kind it is biochemical, Acremonium sp. WCQ6A; Humicola insolens.

In experiment [6] the test system is T6, R8.
T6 construct: gene Xyl43A; Xyl43A with segment A3 (D161-K231) of AX543; pET-28a(+), E. coli BL21(DE3), purified
In kind it is biochemical, Humicola insolens; Acremonium sp. WCQ6A.

Experiment [7] deals with T7, R1.
T7 construct: gene AX543; pET-28a(+), E. coli BL21(DE3), purified
In kind it is biochemical, Acremonium sp. WCQ6A; Humicola insolens.

In experiment [8] the test system is T8, R10.
T8 construct: gene AX543; Xyl43A with segment A1 (M1-K67) of AX543 at the N-terminus; pET-28a(+), E. coli BL21(DE3), purified
In kind it is biochemical, Humicola insolens; Acremonium sp. WCQ6A.

Experiment [9] concerns T9, R3.
T9 construct: gene AX543; pET-28a(+), E. coli BL21(DE3), purified
In kind it is biochemical, Acremonium sp. WCQ6A; Humicola insolens.

Experiment [10] concerns T10, R4.
T10 construct: gene AX543; pET-28a(+), E. coli BL21(DE3), purified
In kind it is biochemical, Acremonium sp. WCQ6A; Humicola insolens.

For the molecule `O=[N+]([O-])c1ccc(O[C@@H]2OC[C@@H](O)[C@H](O)[C@H]2O)cc1` [4-nitrophenyl-β-D-xylopyranoside], the Km is 1320 ± 59 µM in experiment [1]; 1210 ± 56 µM in experiment [2]; 1630 ± 60 µM in experiment [3]; 1190 ± 34 µM in experiment [4]; 1170 ± 33 µM in experiment [5]; 1300 ± 192 µM in experiment [6]. The Km in experiment [7] was 1250 ± 48 µM; in experiment [8], 1870 ± 44 µM; in experiment [9], 1000 ± 25 µM; in experiment [10], 1840 ± 106 µM.
